Patent US20170055529A1, “BROAD SPECTRUM WEED CONTROL IN FLOODED RICE BY IN-WATER APPLICATION OF AUXIN HERBICIDES” (priority 2015, published 2017)

Legend:
Format in all cases: in vivo
[1] = tested on: ORYSP = Oryza sativa Japonica (transplanted paddy rice); assay: Field trial in-water application, crop tolerance
Description: (§1) Field trials were conducted in rice using standard herbicide small plot research methodology. Plot size was 2 square meters (m^2) using 1.6 meter (m) diameter rings placed into the rice paddy soil with capability for flooding to maintain good rice cultural practices and rice growing conditions. There were 3 replicates per treatment. Rice was Japonica type that was hand-transplanted into the saturated soil in the rings as per normal cultural practices. The transplanted rice crop was grown using normal cultural practices for fertilization, watering, flooding and maintenance to ensure good growth of the crop and the weeds under transplanted rice conditions in Taiwan.
(§2) Treatments were applied by mixing the treatments with deionized water just prior to water-injection application by hand to multiple sides in the ring plots. For each 2 m^2 plot, 50 mL deionized water was mixed with the appropriate formulated product amounts to treat 2 m^2 to achieve the desired application rates based on unit area of application (hectare). Ring plot water depth was kept at 3 to 7 cm deep before and after water-injection application.
(§3) The rice and weeds were evaluated at 28 days after application (DAA). Triclopyr triethylammonium (as Garlon® 3 A, 360 g ae/L); fluroxypyr methylheptyl ester (meptyl or MHE, as Starane® Ultra, 333 g ae/L); 2,4-dichlorophenoxyacetic acid dimethylammonium (2,4-D AMINE, 400 g ae/L SL); penoxsulam (as Grasp® SC, 240 g ai/L); and bensulfuron-methyl (as LONDAX® 10% WAY WP) were used.
(§4) The treated and control plots were rated at 28 days after application. Ratings were based on percent (%) visual weed control, where 0 corresponds to no control and 100 corresponds to complete control.

[2] = tested on: CYPDI = Cyperus difformis (small-flower flatsedge); assay: Field trial in-water herbicidal efficacy
Description: as §1, §2, §3, §4

[3] = tested on: ECHCG = Echinochloa crus-galli (barnyardgrass); assay: Field trial in-water herbicidal efficacy
Description: as §1, §2, §3, §4

[4] = tested on: LEFCH = Leptochloa chinensis (Chinese sprangletop); assay: Field trial in-water herbicidal efficacy
Description: as §1, §2, §3, §4

[5] = tested on: MOOVA = Monochoria vaginalis (monochoria); assay: Field trial in-water herbicidal efficacy
Description: as §1, §2, §3, §4

[6] = tested on: SCPJU = Schoenoplectus juncoides (Japanese bulrush); assay: Field trial in-water herbicidal efficacy
Description: as §1, §2, §3, §4

Row | Compound | Percent (%) Visual Injury Ratings - 28 DAA, ORYSP ([1]; 140 g ae/ha in-water 10 DAT) [%] | Percent (%) Visual Injury Ratings - 28 DAA, ORYSP ([1]; 280 g ae/ha in-water 10 DAT) [%] | Percent (%) Visual Injury Ratings - 28 DAA, ORYSP ([1]; 560 g ae/ha in-water 10 DAT) [%] | Percent (%) Visual Injury Ratings - 28 DAA, CYPDI ([2]; 140 g ae/ha in-water 10 DAT) [%] | Percent (%) Visual Injury Ratings - 28 DAA, CYPDI ([2]; 280 g ae/ha in-water 10 DAT) [%] | Percent (%) Visual Injury Ratings - 28 DAA, CYPDI ([2]; 560 g ae/ha in-water 10 DAT) [%] | Percent (%) Visual Injury Ratings - 28 DAA, ECHCG ([3]; 140 g ae/ha in-water 10 DAT) [%] | Percent (%) Visual Injury Ratings - 28 DAA, ECHCG ([3]; 280 g ae/ha in-water 10 DAT) [%] | Percent (%) Visual Injury Ratings - 28 DAA, ECHCG ([3]; 560 g ae/ha in-water 10 DAT) [%] | Percent (%) Visual Injury Ratings - 28 DAA, LEFCH ([4]; 140 g ae/ha in-water 10 DAT) [%] | Percent (%) Visual Injury Ratings - 28 DAA, LEFCH ([4]; 280 g ae/ha in-water 10 DAT) [%] | Percent (%) Visual Injury Ratings - 28 DAA, LEFCH ([4]; 560 g ae/ha in-water 10 DAT) [%] | Percent (%) Visual Injury Ratings - 28 DAA, MOOVA ([5]; 140 g ae/ha in-water 10 DAT) [%] | Percent (%) Visual Injury Ratings - 28 DAA, MOOVA ([5]; 280 g ae/ha in-water 10 DAT) [%] | Percent (%) Visual Injury Ratings - 28 DAA, MOOVA ([5]; 560 g ae/ha in-water 10 DAT) [%] | Percent (%) Visual Injury Ratings - 28 DAA, SCPJU ([6]; 140 g ae/ha in-water 10 DAT) [%] | Percent (%) Visual Injury Ratings - 28 DAA, SCPJU ([6]; 280 g ae/ha in-water 10 DAT) [%] | Percent (%) Visual Injury Ratings - 28 DAA, SCPJU ([6]; 560 g ae/ha in-water 10 DAT) [%]
1 | CCCCCCC(C)OC(=O)COc1nc(F)c(Cl)c(N)c1Cl (stereo not drawn) [Fluroxypyr-meptyl (Starane ® Ultra), 1-methylheptyl 2-[(4-amino-3,5-dichloro-6-fluoro-2-pyridinyl)oxy]acetate] | 0 | 0 | 0 | 95.0 | 98.7 | 100.0 | 0.0 | 0.0 | 0.0 | 0.0 | 0.0 | 0.0 | 0.0 | 0.0 | 60.0 | 88.3 | 98.0 | 99.3
2 | O=C(O)COc1ccc(Cl)cc1Cl [2,4-D DMA (Weedar ® 64), dimethylammonium 2-(2,4-dichlorophenoxy)acetate] | 0 | 0 | 0 | 0.0 | 94.3 | 100.0 | 0.0 | 0.0 | 0.0 | 0.0 | 0.0 | 0.0 | 0.0 | 6.7 | 93.3 | 10.0 | 90.0 | 100.0
3 | O=C(O)COc1nc(Cl)c(Cl)cc1Cl [Triclopyr triethanolamine (Garlon ® 3A), triethylammonium 2[(3,5,6-trichloro-2-pyridinyl)oxy]acetate] | 0 | 0 | 0 | 0.0 | 0.0 | 0.0 | 0.0 | 0.0 | 0.0 | 0.0 | 0.0 | 0.0 | 0.0 | 0.0 | 0.0 | 0.0 | 0.0 | 0.0
